What was measured:
[1] = tested on: Mice (male, C57Bl/6); assay: Bleomycin lung fibrosis; type: in vivo
Excerpt: Mice (male, C57BL/6) were randomized into treatment groups and fibrosis was induced by intratracheal administration of bleomycin. Treatment with representative compounds of the invention (i.e., test compounds) or reference standard (pirfenidone) was initiated on Day −1 and administered daily unto Day 7 or Day 21. For groups undergoing bronchoalveolar lavage (BAL), the trachea was cannulated and infused with ice cold Hank's Balanced Salt Solution (HBSS, pH 7.2). The collected lavage fluid was analyzed for cell numbers (total and differential counts) and levels of soluble TGFβ and collagen. For other groups, the lungs were either snap-frozen or formalin-fixed for further analyses.

[2] = tested on: rats (male, Wistar); assay: Complete Freund's Adjuvant (CFA) model of inflammatory pain in rats; type: in vivo; conditions: 30 mg/kg dose
Experimental: Representative compounds of the invention (i.e., test compounds) were tested in this model of inflammatory pain. The rats (male, Wistar) were acclimatized to the instruments (plantar test surface and dynamic plantar aesthesiometer) on two consecutive days prior to the initiation of the study. On Day 0, basal paw withdrawal latency and paw withdrawal threshold were taken and animals were randomized to different groups. Complete Freund's Adjuvant (CFA) at 1 mg/mL (0.1 mL) was injected into the plantar surface of right hind paw. Test compounds (3 or 30 mg/kg) were administered PO, twice (Day 0 and Day 1) or once, on Day 1 (24 h after CFA). Thermal hyperalgesia and mechanical allodynia were assessed at 0 (baseline), 1, 3 and 6 h after administration of the test compound on Day 1. Diclofenac was used as a reference compound, given once on Day 1.

[3] = tested on: Mice (male, C57Bl/6); assay: Pulmonary LPS challenge assay in mice; type: in vivo; conditions: 30 mg/kg, oral gavage once daily for three days; BALF 24 h post LPS
Experimental: Mice (male, C57Bl/6) were acclimatized for a period of about 7 days before initiation of the experiment and randomized on the day prior to treatment. Mice received vehicle or representative test compounds of the invention (i.e., test compounds) once daily for three days by oral gavage on Day −2, Day −1 and on Day 0 (the last dose being 1 h prior to LPS administration). One group of mice received the reference standard, dexamethasone, once, IP on Day 0 at 1 h prior to LPS administration. Pulmonary inflammation was induced in all animals except the sham control animals by intratracheal instillation of 20 μg LPS per animal in 50 μl saline. Sham control animals received 50 μl saline alone.
Twenty-four hours post LPS administration, animals were euthanized and the trachea was cannulated. Cold Hanks Balanced Salt Solution (HBSS) (SIGMA; Catalogue number: H1387), pH 7.2, was infused into the lungs and bronchoalveolar lavage fluid (BALF) was collected.
Total leukocyte counts were performed from the collected BALF using a mini flow-cytometer and differential counts were performed in cytospin smears stained with Leishman's staining manually. ELISA kits were used for quantification of cytokines in the BALF (TNFα, IL-1β, IL-6 and KC). Reagents, samples and standards were prepared as per kit manual. Total protein analysis in BALF samples were performed using the Biorad protein assay reagent. […]

[4] = tested on: T cells; assay: T cell proliferation (anti-CD3/anti-CD28 dynabeads, CCK-8); type: cell-based, mice; conditions: Table 4, mouse T cells, 72 hours after dynabeads, read-out: Scoring (IC50, cell proliferation)
Experimental: Spleens were obtained from six male, CD-1 outbred mice, approximately 8 weeks old. Cells were harvested under sterile conditions by forcing each spleen though a cell filter (pore size 100 μm diameter). A homogenous cell suspension was obtained by washing the cells in fresh medium and passing cells through a smaller cell filter (pore size 70 μm).
Untouched T cells were isolated using the Pan T cell isolation kit (Miltenyi Biotech). Briefly, cells were counted and incubated with the required volume of antibody cocktail for 5 minutes at 4° C. before addition of microbeads and incubation for 10 minutes at 4° C. Labeled cells were retained in a magnetic column while unlabeled cells (T cells) passed through the column and were retained for use in the assay.
Cell viability was assessed by Trypan Blue exclusion and found to be >99% prior to transfer to plates. Isolated T cells were seeded out in 96 well plates at a density of 50,000 cells per well and allowed to incubate for 60 minutes in a humidified cell culture (37° C., 5% CO2) incubator prior to compound treatment. The media used for this assay (TexMACS, Miltenyi Biotech) was previously optimized for proliferation of T cells in serum free conditions.
Representative compounds of the invention (i.e., test compounds) were prepared as 30 mM stocks in 100% DMSO. Test compounds were initially diluted in media to yield 3 mM stocks before an additional 1:10 dilution in media was performed to yield working stocks of 300 μM (1% DMSO). Subsequent dilutions were performed in media (supplemented with 1% DMSO). When added to the assay plates (1:10 dilution), these yielded final concentrations in the assay plates of in 0.1% DMSO. The reference compound, Cyclosporin A, was prepared in an identical manner as above.
Unstimulated and Stimulated Control wells received an identical volume of TexMACS media/1% DMSO at this time, resulting in a final concentration of 0.1% DMSO across the plate. Mouse anti-CD3/anti-CD28 dynabeads were prepared (following the manufacturers' instructions) in TexMACS media and added to appropriate wells to achieve a final concentration of 1 bead per cell. Unstimulated Control wells then received an identical volume of TexMACS. Plates were centrifuged 72 hours after addition of dynabeads, (300×g for 3 minutes) to pellet the cells and 60% of the supernatant was removed to a fresh plate for analysis by ELISA. After removal of 60% of the supernatant for subsequent ELISA, cell proliferation was assessed using the CCK-8 assay.
Average response by the standard compound, cyclosporin A, was 1 uM.

[5] = tested on: Rats (male, Sprague-Dawley); assay: TNBS colitis assay in rats; type: in vivo; conditions: 30 mg/kg dose, PO, QD for 7 days
Experimental: TNBS Colitis Assay of Representative Compounds in Rats Rats (male, Sprague-Dawley) were anaesthetized and a solution of TNBS (48 mg/kg) in ethanol, was instilled intra-rectally to induce colitis, 1 h after oral dosing of representative compounds of the invention (i.e., test compounds). Test compounds were dosed PO, QD for 7 days, using prednisolone as a reference standard. […] On Day 7, rats were euthanized and the colon was evaluated for length, weight, wall thickness, ulcer number and length and for the presence of adhesions and strictures. A colonic score was calculated based on the severity of the colonic parameters.

## C=C1CC[C@H]2[C@H](CN)[C@@H]([C@@]3(C)Cc4cn[nH]c4C[C@@H]3CO)CC[C@]12C [Ia-1, ((5R,6S)-5-((3aS,4R,5S,7aS)-4-(aminomethyl)-7a-methyl-1-methyleneoctahydro-1H-inden-5-yl)-5-methyl-4,5,6,7-tetrahydro-1H-indazol-6-yl)methanol]
[1]; Day 7, 3.0 mg/kg dose
  reduction in BAL macrophages as compared to the vehicle: 41%
[1]; Day 7, 30 mg/kg dose
  reduction in BAL macrophages as compared to the vehicle: 35%
[1]; Day 14, 30 mg/kg dose (first mention)
  reduction in fibrosis: 31%
[1]; Day 14, 30 mg/kg dose (second mention)
  reduction in fibrosis: 34%
[2]
  increase in the paw withdrawal threshold: 31%
[3]
  % protection from neutrophilia: 44%
[4]
  IC50: 6 to 15 µM
[5]
  inhibition of the colonic score: 36%
